Tests used:
[1] = target: T1, DHK (SDR from Debaryomyces hansenii) (Debaryomyces hansenii, UniProt Q6BTD7); test: differential scanning fluorimetry, SYPRO orange; type: binding; conditions: 50 μM ligand, 2.5 μM enzyme; apo Tm 28.04°C
T1 construct: gene DEHA2D01496g; full-length codon-optimised synthetic gene in pET28a, N-terminal His6 tag kept, E. coli BL21(DE3), ~39 kDa, monomer

[2] = target: T2, FabG (β-keto ACP reductase) (Synechococcus elongatus, UniProt Q31QF3); test: differential scanning fluorimetry, SYPRO orange; type: binding; conditions: 2.5 μM enzyme; apo Tm 58°C, with NADPH 65°C
T2 construct: gene Synpcc7942_0684; codon-optimised synthetic gene in pET28a, N-terminal His6 tag, E. coli BL21(DE3), ~29 kDa

purified protein [3] = substrate: CCOC(=O)CC(=O)CCl; test: purified protein; type: biochemical, Debaryomyces hansenii; conditions: 300 μM NADPH, 100 mM sodium phosphate, 100 mM NaCl, pH 7.4, 25°C
purified protein [4] = substrate: NC(=O)C1=CN([C@@H]2O[C@H](COP(=O)(O)OP(=O)(O)OC[C@H]3O[C@@H](n4cnc5c(N)ncnc54)[C@H](OP(=O)(O)O)[C@@H]3O)[C@@H](O)[C@H]2O)C=CC1; test: purified protein; type: biochemical, Debaryomyces hansenii; conditions: 2 mM ethyl 4-chloro acetoacetate, 100 mM sodium phosphate, 100 mM NaCl, pH 7.4, 25°C, varied: cofactor

T2 sequence (Q31QF3 entry or part of it): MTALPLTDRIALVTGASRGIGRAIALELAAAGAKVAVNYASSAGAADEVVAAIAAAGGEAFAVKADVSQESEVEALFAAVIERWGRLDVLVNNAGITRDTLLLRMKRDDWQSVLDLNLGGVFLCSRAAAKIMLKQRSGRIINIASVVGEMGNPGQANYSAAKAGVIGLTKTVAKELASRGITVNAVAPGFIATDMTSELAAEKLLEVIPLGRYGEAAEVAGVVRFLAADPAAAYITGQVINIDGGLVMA

Row | Molecule | ΔTm [1] [°C] | Tm shift [2] [°C] | Km (purified protein [3]) [µM] | Km (purified protein [4]) [µM]
1 | NC(=O)C1=CN([C@@H]2O[C@H](COP(=O)(O)OP(=O)(O)OC[C@H]3O[C@@H](n4cnc5c(N)ncnc54)[C@H](OP(=O)(O)O)[C@@H]3O)[C@@H](O)[C@H]2O)C=CC1 [NADPH] | 6.05 | 7 | – | –
2 | NC(=O)C1=CN([C@@H]2O[C@H](COP(=O)(O)OP(=O)(O)OC[C@H]3O[C@@H](n4cnc5c(N)ncnc54)[C@H](O)[C@@H]3O)[C@@H](O)[C@H]2O)C=CC1 [NADH] | 1.82 | – | – | –
3 | DHK (SDR from Debaryomyces hansenii) (Debaryomyces hansenii CBS767) (protein, full-length codon-optimised synthetic gene in pET28a, N-terminal His6 tag kept, E. coli BL21(DE3), ~39 kDa, monomer) MTRTVFVSGASGFIAQNIVKLLIEKGYNVIGTVRTAEKGENLKKCLASEKFTYEIVPDISVEGAFDKVLEKHSEINVLLHTASPFFYDTTDPENDLVLPAINGTKNILKAVKQYGAQIERVVITSSDAAIYSADDEQNSDLSFNESNWNSISYEDAIKDPIAAYYGAKTFAEKAAWDFVKENNSNFKLTAVNPVYVFGPQAFASEVKGKLNTSNELINTLIKLGPSDLFDNDKGGFIDVRDVAKAHVMAFESEDTINKRLYLTNGHFSTQMMLDIVNKNFPELKGKIPIGNPGTGSQDISTLAKMSNDATRQILNFDFNSLEKVVADTVAQILDARKRTL | – | – | 616.1 | 51.09

— PMC5249140, “Delineating Substrate Diversity of Disparate Short-Chain Dehydrogenase Reductase from Debaryomyces hansenii” (PLoS ONE, 2017)
